Experimental data reported in patent US20240391862A1, “(1,4,5-TRISUBSTITUTED-1H-PYRAZOL-3-YL)OXY-2-ALKOXY ALKYL ACIDS AND THEIR DERIVATIVES, THEIR SALTS AND THEIR USE AS HERBICIDAL AGENTS” (Bayer AKtiengesellschaft, priority 2021, published 2024).

Tests used:
[1] = system: AVEFA; test: Pre-emergence herbicidal effect, greenhouse pot test; type: in vivo, Avena fatua; details: scored visually after about 3 weeks vs untreated controls
Text: (§1) Seeds of monocotyledonous and dicotyledonous weed plants and crop plants are placed in plastic or organic planting pots and covered with soil. The compounds of the invention, formulated in the form of wettable powders (WP) or as emulsion concentrates (EC), are then applied to the surface of the covering soil as aqueous suspension or emulsion with addition of 0.5% additive at a water application rate equivalent to 600 l/ha. After the treatment, the pots are placed in a greenhouse and kept under good growth conditions for the trial plants. After about 3 weeks, the effect of the preparations is scored visually in comparison with untreated controls as percentages. For example, 100% activity=the plants have died, 0% activity=like control plants.
(§2) Tables 1a to 19c below show the effects/crop compatibilities of selected compounds of the general formula (I) on various harmful plants at an application rate corresponding to 20 to 320 g/ha, which were obtained by the trial procedure specified above.
(§3) • ALOMY: Alopecurus myosuroides SETVI: Setaria viridis • AVEFA: Avena fatua POLCO: Fallopia convolvulus • AMARE: Amaranthus retroflexus ECHCG: Echinochloa crus-galli • LOLRJ: Lolium rigidum STEME: Stellaria media • VERPE: Veronica persica MATIN: Tripleurospermum inodorum • DIGSA: Digitaria sanguinalis ABUTH: Abutylon threophrasti • TRZAS: Triticum aestivum VIOTR: Viola tricolor • BRSNW: Brassica napus ZEAMX: Zea mays • PHBPU: Ipomoea purpurea GLXMA: Glycine max • ORYSA: Oryza sativa HORMU: Hordeum murinum

[2] = system: SETVI; test: as above; type: in vivo, Setaria viridis; details: Setaria viridis, 504 h, 320 g/ha, scored visually after about 3 weeks vs untreated controls, read-out: Pre-emergence effect at 320 g/ha against SETVI in %
Text: as §1, §2, §3

[3] = system: VIOTR; test: as above; type: in vivo, Viola tricolor; details: scored visually after about 3 weeks vs untreated controls
Text: as §1, §2, §3

[4] = system: LOLRI; test: as above; type: in vivo, Lolium rigidum; details: scored visually after about 3 weeks vs untreated controls
Text: as §1, §2, §3

[5] = system: VERPE; test: as above; type: in vivo, Veronica persica; details: scored visually after about 3 weeks vs untreated controls
Text: as §1, §2, §3

[6] = system: MATIN; test: as above; type: in vivo, Tripleurospermum inodorum; details: scored visually after about 3 weeks vs untreated controls; for pest or weed control at 320 g/ha: Tripleurospermum inodorum, 504 h, read-out: Pre-emergence effect at 320 g/ha against MATIN in %
Text: as §1, §2, §3

[7] = system: POLCO; test: as above; type: in vivo, Fallopia convolvulus; details: scored visually after about 3 weeks vs untreated controls; for pest or weed control at 320 g/ha: Fallopia convolvulus, 504 h, read-out: Pre-emergence effect at 320 g/ha against POLCO in %
Text: as §1, §2, §3

[8] = system: ABUTH; test: as above; type: in vivo, Abutilon theophrasti; details: 320 g/ha, scored visually after about 3 weeks vs untreated controls
Text: as §1, §2, §3

[9] = system: PHBPU; test: as above; type: in vivo, Ipomoea purpurea; details: scored visually after about 3 weeks vs untreated controls
Text: as §1, §2, §3

[10] = system: AMARE; test: as above; type: in vivo, Amaranthus retroflexus; details: scored visually after about 3 weeks vs untreated controls; for pest or weed control at 320 g/ha: Amaranthus retroflexus, 504 h, read-out: Pre-emergence effect at 320 g/ha against AMARE in %
Text: as §1, §2, §3

[11] = system: ALOMY; test: as above; type: in vivo, Alopecurus myosuroides; details: scored visually after about 3 weeks vs untreated controls
Text: as §1, §2, §3

[12] = system: ECHCG; test: as above; type: in vivo, Echinochloa crus-galli; details: scored visually after about 3 weeks vs untreated controls; for pest or weed control at 320 g/ha: Echinochloa crus-galli, 504 h, read-out: Pre-emergence effect at 320 g/ha against ECHCG in %
Text: as §1, §2, §3

[13] = system: DIGSA; test: as above; type: in vivo, Digitaria sanguinalis; details: 320 g/ha, scored visually after about 3 weeks vs untreated controls
Text: as §1, §2, §3

[14] = system: TRZAS; test: Post-emergence herbicidal effect and crop plant compatibility, greenhouse pot test; type: in vivo, Triticum aestivum; details: Triticum aestivum, 504 h, 20 g/ha, one-leaf stage, rated visually after about 3 weeks vs untreated controls, read-out: Post-emergence effect at 20 g/ha against TRZAS in %
Method in brief: (§4)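 Greenhouse pot test: weeds and crops sown in sandy loam, sprayed post-emergence at one-leaf stage (2–3 weeks after sowing) with WP or EC formulations plus 0.5% additive at 600 l/ha water, rates 20–320 g/ha. Visual rating about 3 weeks later versus untreated controls (100% = dead, 0% = as control).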

[15] = system: BRSNW; type: in vivo, Brassica napus; details: one-leaf stage, rated visually after about 3 weeks vs untreated controls
Text: as §3
Seeds of monocotyledonous and dicotyledonous weeds and crop plants are placed in sandy loam in plastic or organic planting pots, covered with soil and cultivated in a greenhouse under controlled growth conditions. 2 to 3 weeks after sowing, the trial plants are treated at the one-leaf stage. The compounds of the invention, formulated in the form of wettable powders (WP) or as emulsion concentrates (EC), are then sprayed onto the green parts of the plants as aqueous suspension or emulsion with addition of 0.5% additive at a water application rate of 600 l/ha (converted). After the test plants have been kept in the greenhouse under optimum growth conditions for about 3 weeks, the activity of the preparations is rated visually in comparison to untreated controls. For example, 100% activity=the plants have died, 0% activity=like control plants.
Tables 20a to 38c below show the effects/crop compatibilities of selected compounds of the general formula (I) on various harmful plants at an application rate corresponding to 20 to 320 g/ha, which were obtained by the trial procedure specified above.

[16] = system: ZEAMX; test: Post-emergence herbicidal effect and crop plant compatibility, greenhouse pot test; type: in vivo, Zea mays; details: Zea mays, 504 h, one-leaf stage, rated visually after about 3 weeks vs untreated controls
Method in brief: as §4

[17] = system: ZEAMX; test: Pre-emergence herbicidal effect and crop plant compatibility, greenhouse pot test; type: in vivo, Zea mays; details: scored visually after about 3 weeks vs untreated controls
Text: as §1, §2, §3

[18] = system: KCHSC; test: Pre-emergence herbicidal effect, greenhouse pot test; type: in vivo; details: 320 g/ha, scored visually after about 3 weeks vs untreated controls
Text: as §1, with “control plants. Tables 1a to 19c below show the effects/crop compatibilities of selected compounds of the general formula (I) on various harmful plants at an application rate corresponding to 20 to 320 g/ha, which were obtained by the trial procedure specified above.” for “control plants.”

COC(Oc1nn(-c2cc(F)ccc2F)c(-c2cncc(F)c2)c1C1CC1)C(=O)O (centres unmarked) [Example I-34]
Pre-emergence effect at 20 g/ha against AVEFA in % ([1]; 20 g/ha): 80% | Pre-emergence effect at 80 g/ha against AVEFA in % ([1]; 80 g/ha): 90% | Pre-emergence effect at 320 g/ha against AVEFA in % [1]: 100% | pest or weed control at 320 g/ha [2]: 90% | Pre-emergence effect at 20 g/ha against VIOTR in % ([3]; 20 g/ha): 80% | Pre-emergence effect at 80 g/ha against VIOTR in % ([3]; 80 g/ha): 100% | Pre-emergence effect at 320 g/ha against VIOTR in % [3]: 100% | Pre-emergence effect at 80 g/ha against LOLRI in % ([4]; 80 g/ha): 90% | Pre-emergence effect at 320 g/ha against LOLRI in % [4]: 100% | Pre-emergence effect at 320 g/ha against VERPE in % [5]: 80% | Pre-emergence effect at 80 g/ha against MATIN in % ([6]; 80 g/ha): 90% | pest or weed control at 320 g/ha [6]: 90% | Pre-emergence effect at 20 g/ha against POLCO in % ([7]; 20 g/ha): 90% | Pre-emergence effect at 80 g/ha against POLCO in % ([7]; 80 g/ha): 90% | pest or weed control at 320 g/ha [7]: 90% | Pre-emergence effect at 320 g/ha against ABUTH in % [8]: 90% | Pre-emergence effect at 80 g/ha against PHBPU in % ([9]; 80 g/ha): 90% | Pre-emergence effect at 320 g/ha against PHBPU in % ([9]; 320 g/ha): 90% | Pre-emergence effect at 80 g/ha against AMARE in % [10]: 100% | pest or weed control at 320 g/ha [10]: 100% | Pre-emergence effect at 80 g/ha against ALOMY in % ([11]; 80 g/ha): 90% | Pre-emergence effect at 320 g/ha against ALOMY in % [11]: 100% | Pre-emergence effect at 80 g/ha against ECHCG in % ([12]; 80 g/ha): 90% | pest or weed control at 320 g/ha [12]: 100% | Pre-emergence effect at 320 g/ha against DIGSA in % [13]: 80%

COC(Oc1nn(-c2ncccc2F)c(-c2ccc(F)nc2)c1Br)C(=O)O (centres unmarked) [Example I-45]
percent crop injury (phytotoxicity) to wheat, post-emergence at 20 g/ha [14]: 0% | Post-emergence effect at 320 g/ha against BRSNW in % [15]: 0% | plant injury at 20 g/ha ([16]; 20 g/ha, read-out: Post-emergence effect at 20 g/ha against ZEAMX in %): 0% | plant injury at 80 g/ha ([16]; 80 g/ha, read-out: Post-emergence effect at 80 g/ha against ZEAMX in %): 0% | plant injury at 320 g/ha ([16]; 320 g/ha, read-out: Post-emergence effect at 320 g/ha against ZEAMX in %): 0%

COC(=O)C(OC)Oc1nn(-c2ccccc2F)c(-c2ccc(F)nc2)c1I (centres unmarked) [Example I-49]
Pre-emergence effect at 320 g/ha against AVEFA in % [1]: 90% | pest or weed control at 320 g/ha [2]: 100% | Pre-emergence effect at 20 g/ha against ZEAMX in % ([17]; 20 g/ha): 0% | Pre-emergence effect at 80 g/ha against ZEAMX in % ([17]; 80 g/ha): 0% | Pre-emergence effect at 320 g/ha against VIOTR in % [3]: 90% | Pre-emergence effect at 320 g/ha against LOLRI in % [4]: 90% | Pre-emergence effect at 320 g/ha against KCHSC in % [18]: 100% | pest or weed control at 320 g/ha [6]: 90% | pest or weed control at 320 g/ha [7]: 80% | Pre-emergence effect at 80 g/ha against AMARE in % [10]: 90% | pest or weed control at 320 g/ha [10]: 100% | Pre-emergence effect at 320 g/ha against ALOMY in % [11]: 90% | pest or weed control at 320 g/ha [12]: 90% | Pre-emergence effect at 320 g/ha against DIGSA in % [13]: 100%
